SMILES	melting point [°C]
Cc1ccc(/C=C/c2nc(COc3ccc(CCCCn4ccnn4)cc3)co2)cc1 [Example 1]	154 to 155
Fc1ccc(/C=C/c2nc(COc3ccc(CCCCn4ccnn4)cc3)co2)cc1 [Example 2, 1-{4-[4-({2-[(E)-2-(4-fluorophenyl)ethenyl]-1,3-oxazol-4-yl}methoxy)phenyl]butyl}-1H-1,2,3-triazole]	124 to 125
Fc1ccc(/C=C/c2nc(COc3cccc(CCCn4ccnn4)c3)co2)cc1 [Example 3, 1-{3-[3-({2-[(E)-2-(4-fluorophenyl)ethenyl]-1,3-oxazol-4-yl}methoxy)phenyl]propyl}-1H-1,2,3-triazole]	105 to 106
FC(F)(F)c1ccc(/C=C/c2nc(COc3ccc(CCCn4ccnn4)cc3)co2)cc1 [Example 5, 1-(3-{4-[(2-((E)-2-[4-(trifluoromethyl)phenyl]ethenyl)-1,3-oxazol-4-yl)methoxy]phenyl}propyl)-1H-1,2,3-triazole]	157 to 158
FC(F)(F)c1ccc(/C=C/c2nc(COc3cccc(CCCn4ccnn4)c3)co2)cc1 [Example 6, 1-(3-{3-[(2-((E)-2-[4-(trifluoromethyl)phenyl]ethenyl}-1,3-oxazol-4-yl)methoxy]phenyl}propyl)-1H-1,2,3-triazole]	115 to 116
Fc1ccc(/C=C/c2nc(COc3ccc(CCCCn4ccnn4)cc3)co2)c(F)c1 [Example 7, 1-{4-[4-({2-[(E)-2-(2,4-difluorophenyl)ethenyl]-1,3-oxazol-4-yl}methoxy)phenyl]butyl}-1H-1,2,3-triazole]	115 to 117
Fc1ccc(/C=C/c2nc(COc3cccc(CCCn4ccnn4)c3)co2)c(F)c1 [Example 8, 1-{3-[3-({2-[(E)-2-(2,4-difluorophenyl)ethenyl]-1,3-oxazol-4-yl}methoxy)phenyl]propyl}-1H-1,2,3-triazole]	89 to 90
Cc1ccc(/C=C/c2nc(COc3ccc(CCCCn4ccnc4CCO)cc3)co2)cc1 [Example 10, 2-[1-[4-[4-[[2-[(E)-2-(4-methylphenyl)ethenyl]-1,3-oxazol-4-yl]methoxy]phenyl]butyl]-1H-imidazol-2-yl]-1-ethanol]	108 to 109
Cc1cccc(/C=C/c2nc(COc3ccc(CCCCn4ccnc4CCO)cc3)co2)c1 [Example 11, 2-[1-[4-[4-[[2-[(E)-2-(3-methylphenyl)ethenyl]-1,3-oxazol-4-yl]methoxy]phenyl]butyl]-1H-imidazol-2-yl]-1-ethanol]	109 to 111
Cc1ccccc1/C=C/c1nc(COc2ccc(CCCCn3ccnc3CCO)cc2)co1 [Example 12, 2-[1-[4-[4-[[2-[(E)-2-(2-methylphenyl)ethenyl]-1,3-oxazol-4-yl]methoxy]phenyl]butyl]-1H-imidazol-2-yl]-1-ethanol]	91 to 93
CCc1ccc(/C=C/c2nc(COc3ccc(CCCCn4ccnc4CCO)cc3)co2)cc1 [Example 13, 2-[1-[4-[4-[[2-[(E)-2-(4-ethylphenyl)ethenyl]-1,3-oxazol-4-yl]methoxy]phenyl]butyl]-1H-imidazol-2-yl]-1-ethanol]	94 to 95
OCCc1nccn1CCCCc1ccc(OCc2coc(/C=C/c3ccc(F)cc3)n2)cc1 [Example 14, 2-(1-(4-[4-({2-[(E)-2-(4-fluorophenyl)ethenyl]-1,3-oxazol-4-yl}methoxy)phenyl]butyl)-1H-imidazol-2-yl)-1-ethanol]	130 to 132
OCCc1nccn1CCCCc1ccc(OCc2coc(/C=C/c3ccc(Cl)cc3)n2)cc1 [Example 15, 2-[1-[4-[4-[[2-[(E)-2-(4-chlorophenyl)ethenyl]-1,3-oxazol-4-yl]methoxy]phenyl]butyl]-1H-imidazol-2-yl]-1-ethanol]	127 to 128
OCCc1nccn1CCCCc1ccc(OCc2coc(/C=C/c3ccc(Br)cc3)n2)cc1 [Example 16, 2-[1-[4-[4-[[2-[(E)-2-(4-bromophenyl)ethenyl]-1,3-oxazol-4-yl]methoxy]phenyl]butyl]-1H-imidazol-2-yl]-1-ethanol]	149 to 150
OCCc1nccn1CCCCc1ccc(OCc2coc(/C=C/c3ccc(F)cc3F)n2)cc1 [Example 19, 2-[1-[4-[4-[[2-[(E)-2-(2,4-difluorophenyl)ethenyl]-1,3-oxazol-4-yl]methoxy]phenyl]butyl]-1H-imidazol-2-yl]-1-ethanol]	93 to 95
OCCc1nccn1CCCc1ccc(OCc2coc(/C=C/c3ccc(F)cc3F)n2)cc1 [Example 20, 2-[1-[3-[4-[[2-[(E)-2-(2,4-difluorophenyl)ethenyl]-1,3-oxazol-4-yl]methoxy]phenyl]propyl]-1H-imidazol-2-yl]-1-ethanol]	94 to 96

Other lines, results leading:

melting point [°C]	SMILES
106 to 107	OCCc1nccn1CCCCc1ccc(OCc2coc(/C=C/c3c(F)cccc3F)n2)cc1 [Example 21]
102 to 104	Cc1cccc(/C=C/c2nc(COc3ccc(CCCCn4ccnc4CC(O)CO)cc3)co2)c1 (stereo not shown) [Example 22, 3-(1-{4-[4-({2-[(E)-2-(3-methylphenyl)ethenyl]-1,3-oxazol-4-yl}methoxy)phenyl]butyl}-1H-imidazol-2-yl)-1,2-propanediol]
114 to 116	OCC(O)Cc1nccn1CCCCc1ccc(OCc2coc(/C=C/c3ccc(F)cc3)n2)cc1 (stereo not shown) [Example 23, 3-(1-{4-[4-({2-[(E)-2-(4-fluorophenyl)ethenyl]-1,3-oxazol-4-yl}methoxy)phenyl]butyl}-1H-imidazol-2-yl)-1,2-propanediol]
142 to 143	OCC(O)Cc1nccn1CCCCc1ccc(OCc2coc(/C=C/c3ccc(C(F)(F)F)cc3)n2)cc1 (stereo not shown) [Example 24, 3-[1-(4-(4-[(2-{(E)-2-[4-(trifluoromethyl)phenyl]ethenyl}-1,3-oxazol-4-yl)methoxy]phenyl}butyl)-1H-imidazol-2-yl]-1,2-propanediol]
102 to 104	OCC(O)Cc1nccn1CCCc1cccc(OCc2coc(/C=C/c3ccc(C(F)(F)F)cc3)n2)c1 (stereo not shown) [Example 25, 3-[1-(3-{3-[(2-{(E)-2-[4-(trifluoromethyl)phenyl]ethenyl}-1,3-oxazol-4-yl)methoxy]phenyl}propyl)-1H-imidazol-2-yl]-1,2-propanediol]
126 to 128	OCC(O)Cc1nccn1CCCCc1ccc(OCc2coc(/C=C/c3ccc(F)cc3F)n2)cc1 (stereo not shown) [Example 26, 3-(1-{4-[4-({2-[(E)-2-(2,4-difluorophenyl)ethenyl]-1,3-oxazol-4-yl]methoxy)phenyl]butyl}-1H-imidazol-2-yl)-1,2-propanediol]
123 to 125	OCC(O)Cc1nccn1CCCCc1ccc(OCc2coc(/C=C/c3c(F)cccc3F)n2)cc1 (stereo not shown) [Example 28, 3-[1-[4-[4-[[2-[(E)-2-(2,6-difluorophenyl)ethenyl]-1,3-oxazol-4-yl]methoxy]phenyl]butyl]-1H-imidazol-2-yl]-1,2-propanediol]
104 to 106	OC[C@H](O)Cc1nccn1CCCCc1ccc(OCc2coc(/C=C/c3ccc(F)cc3F)n2)cc1 [Example 29]
106 to 108	OC[C@@H](O)Cc1nccn1CCCCc1ccc(OCc2coc(/C=C/c3ccc(F)cc3F)n2)cc1 [Example 30]

— US6716863B2, “Heterocyclic compounds their production and use” (Takeda Chemical Industries, Ltd., priority 2000, dated 2004)
